For one data set, the system named is MCF-7 ADR (MDR) cells. Description: VSOM MDR assay (MDR Assay Beta-Test kit), calcein accumulation, run 2. The note with it: for calcein accumulation in selected single cells on exposure to modulator: two of four selected single cell response curves, run 2, CAM+V (syringe #5) or CAM+MK.
The next data set concerns MCF-7 WTC (DS) cells. Description: VSOM MDR assay (MDR Assay Beta-Test kit), calcein accumulation, run 1. Format: cell-based, human. The conditions noted are these: run 1, N=336, three CAM exposures. An excerpt:
Both runs used the pump schedule.

A further data set deals with DoHH2 lymphoma. The conditions noted are these: full phosphorothioate 18-mer; severe immunodeficient mice (Raynaud et al.); cited from earlier work.
In another data set the test system is mRNA translation. The conditions noted are these: cell-free system (Mologni et al.); only when both PNA-ODNs are simultaneously present; cited from earlier work.
Another data set has as its system MCF-7 WTC cells. Description: ADR visual servoing experiment, CAM perfusion until average MI threshold. The note with it: 1 μM CAM in DBPSGP perfused at 0.5 mL/min. Format: cell-based, human. As to the method: MCF-7 WTC cells were grown in 35 mm cell culture dishes, and were pre-stained with H42. After an approximately 1 hr pre-incubation with H42, cells were rinsed with DPBSGP and were placed in the warm microscope chamber. The ADR program successfully operated in the following fashion. Three digital images (360 nm excitation, 490 nm excitation, and transmitted light, brightfield) were acquired at regular specified intervals through this experiment and all the H42 stained nuclei were detected and segmented before the next image interval. The nuclear contours for each nucleus that were delineated in the blue channel were used to calculate a mean cellular fluorescence intensity value from the green channel (MI). An initial perfusion of DBPSGP solution only (syringe #1) was performed at 1.0 mL/min for 8.3 minutes, (as specified by the user), and then syringe #1 was stopped. Next, a perfusion of DBPSGP solution containing 1 μM CAM (syringe #2) was begun at 0.5 mL/min. When the average MI of all the cells reached a specified threshold, syringe #2 was stopped via successful visual servoing. It took 13.9 minutes for the cells to accumulate sufficient CAM, and for the system to detect sufficient intracellular CAM (in the nuclear region), before the system successfully stopped syringe #2, and restarted syringe #1. After 11.4 min (as specified) the system stopped syringe #1 again. […]

Procedure for MCF-7 ADR (MDR) cells: Both runs used the pump schedule. […] The red line in each case represents the average of all the cell responses in the entire field of view.
The MDR Assay β-Test kit was also tested in a VSOM experiment, as described herein. […] Pumps are turned on and off at specified flow rates according to a pre-programmed recipe, or based on real-time analysis of individual cell responses. The CAM, V, and MK concentrations used are noted in the figure. The three exposures to CAM were 900 seconds (20 min) each, and thus the total exposure to CAM was 60 min. The black windows at the bottom of the Figure show the mean response of all cells in the field of view.
The plot and images were continuously refreshed and updated during the experiment. […] However, the mean cellular fluorescence of each cell was monitored during VSOM experiments, and making deviations from the mean easily detectable. […] Such cells are unable to retain calcein, and it leaks out, causing the fluorescence signal to drop.

As to `CN(C)C(=O)CCSC(SCCC(=O)O)c1cccc(/C=C/c2ccc3ccc(Cl)cc3n2)c1` (centres unmarked) [MK-571], the “calcein accumulation in selected single cells on exposure to modulator” value in the data set with MCF-7 ADR (MDR) cells was “not inhibited”. Turning to `O=C(O)CN(CC(=O)O)Cc1cc2c(cc1O)Oc1cc(O)c(CN(CC(=O)O)CC(=O)O)cc1C21OC(=O)c2ccccc21` [calcein], the “calcein accumulation (mean cellular fluorescence, mean of all cells in field)” value is 240±82 in the data set with MCF-7 WTC (DS) cells and 103±80 with MCF-7 ADR (MDR) cells (MDR cells, run 2, N=161, three CAM exposures). With `COc1ccc(CCN(C)CCCC(C#N)(c2ccc(OC)c(OC)c2)C(C)C)cc1OC` (centres unmarked) [verapamil], the “calcein accumulation in selected single cells on exposure to modulator” value in the data set on MCF-7 ADR (MDR) cells is reported as “do not accumulate calcein until verapamil (V) exposure”. Turning to “SEQ ID NO:1: 18-mer TCTC CCAG CGTG CGCC AT, anti-sense to the first six codons of the open reading frame of bcl-2 (antisense TCTCCCAGCGTGCGCCAT; chemistry not given here; listed as Homo sapiens)”, in the data set on DoHH2 lymphoma, the “efficacy against DoHH2 lymphoma” value is “has shown efficacy”. Regarding “SEQ ID NO:2: 15-mer peptide nucleic acid oligodeoxyribonucleotide CCCC AGCC CCTA CCC (CCCCAGCCCCTACCC; all peptide nucleic acid (PNA); further chemistry not fully specified; listed as Homo sapiens)”, the “block of mRNA translation” value with mRNA translation was “complete block”. “SEQ ID NO:3: 15-mer peptide nucleic acid oligodeoxyribonucleotide AGCG TGCG CCAT CCC (AGCGTGCGCCATCCC; all peptide nucleic acid (PNA); further chemistry not fully specified; listed as Homo sapiens)”: in the data set with mRNA translation, the “block of mRNA translation” value is “complete block”. With calcein-AM [CAM], in the data set on MCF-7 WTC cells, the “time for cells to accumulate sufficient CAM to reach the specified average MI threshold” value turned out to be 13.9 min.

Values taken from patent publication US8548745B2, “Visual-servoing optical microscopy” (The Regents of the University of California, priority 2000, dated 2013).
